Reference: patent publication US11958876B2, “Carbacyclic phosphatidic acid compound” (OTSUKA CHEMICAL CO., LTD., priority 2019, dated 2024)
Structures can show the parent of a compound that is named as a salt.

Test: Stability test of 2ccPA crystals with added 2ccPA-L or 2ccPA-P (thermo-hygrostat, HPLC purity)
Format: physicochemical
Settings: 40° C., humidity 60%
Procedure: 2ccPA-L of Example 2 or 2ccPA-P of Comparative Example 2 was added to 2ccPA, and a stability test was performed. • Control: 2ccPA crystal • Test substances: crystals obtained by adding 2ccPA-L or 2ccPA-P at each concentration to 2ccPA, followed by crystallization with methanol and acetone. (2) Execution Conditions
In the stability test, a thermo-hygrostat (Yamato Scientific Co., Ltd., IW223) was used. The stability test was performed while maintaining a set temperature of 40° C. and a set humidity of 60%.
The sample purity was confirmed in such a manner that about 10 mg of each sample was weighed every week and diluted with 2 mL of acetonitrile/water (volume ratio: 1/1), and the diluted solution was analyzed by high-performance liquid chromatography (Shimadzu LC20AD).
The results are shown in Table 1 (Example 2) and Table 2 (Comparative Example 2). Tables 1 and 2 focus only on 2ccPA, and show the residual rate thereof with the initial content of 2ccPA as 100 mass %.

## CCCCCCCC/C=C\CCCCCCCC(=O)OCC1COP(=O)(O)C1 (stereo not shown) [Example 2ccPA, sodium salt of 9-octadecenoic acid (9Z)-(2-hydroxy-2-oxo-2λ^5-1,2-oxaphosphoran-4-yl)methyl ester]
Control 2ccPA crystal, 0 mass % additive, 1 week, initial 2ccPA content as 100 mass %
  Stability test (1 week): residual rate of 2ccPA: 100%
Control 2ccPA crystal, 0 mass % additive, 2 weeks, initial 2ccPA content as 100 mass %
  Stability test (2 weeks): residual rate of 2ccPA: 94.4%

## CCCCC/C=C\C/C=C\CCCCCCCC(=O)OCC1COP(=O)(O)C1 (stereo not shown) [Example 2ccPA-L]
2ccPA-L coexisting with 2ccPA, storage 1 or 2 weeks
  Effect on purity of 2ccPA on storage (in words): hardly reduced

## CCCCCCCCCCCCCCCC(=O)OCC1COP(=O)(O)C1 (stereo not shown) [Example 2ccPA-P]
0.15 mass % 2ccPA-P added to 2ccPA
  Effect on purity of 2ccPA on storage (in words): the purity was reduced
